Measured values: paper PMC10321442 (Preventive Nutrition and Food Science, 2023)

Molecular target: α-amylase (Aspergillus oryzae, UniProt P0C1B3)
Assay: amylose hydrolysis inhibition at […], peroxidase-glucose oxidase readout
Assay type: biochemical
Conditions: read-out: % inhibition at 0.50 mM

inhibition at 500 µM: 12.7 ± 1.11%
Compound: COc1cc(/C=C/C(=O)O[C@H]2CC[C@]34C[C@]35CC[C@]3(C)[C@@H]([C@H](C)CCC=C(C)C)CC[C@@]3(C)[C@@H]5CC[C@H]4C2(C)C)ccc1O [Cycloartenyl ferulate]
